Results: US10252260B2, “System and method for deforming particles” (CytoVale Inc., priority 2016, dated 2019)

Experiments:
white blood cells = experiment: Deformation of white blood cells in viscous co-flow, bullet metric as a function of treatment time; assay type: cell-based; settings: white blood cells treated with 5 nM; compared to untreated controls; FIG. 10
Method: FIG. 10 illustrates the bullet metric as a function of treatment time for white blood cells treated with 5 nM phorbol 12-myristate as compared with a untreated control in embodiments of a system and method for deforming particles;
(§1) The system 100 and/or method 200 function to enable the deformation of individual particles in a high-throughput and consistent manner, with the ability to simultaneously generate and analyze multiple data types characterizing the single particles. In one embodiment, the system 100 and/or method 200 further function to enable the generation of data that directly correlates mechanical properties of the particles with one or more fluorescence characterizations of the particles (e.g., fluorescent antibody stains, live/dead cell stains, nuclear stains, stains for apoptosis, fluorescent proteins, etc.) at the single-particle level. This can allow the generation of a direct quantitative comparison between biomolecular properties and mechanical properties. […]
(§2) Regarding Block S240, preferably, deformation metrics can be measured to characterize the deformation of the particles as the particle travels along the deformation region. […]

red blood cells = experiment: Deformation of red blood cells in viscous co-flow (primaquine biomodel), diameter versus bullet metric; assay type: cell-based; settings: red blood cells of different stiffness induced by different concentrations of primaquine; FIGS. 11A-11C
From the text: FIGS. 11A-11C illustrate bullet metric as a function of size for red blood cells treated with different concentrations of primaquine in variations of a system and method for deforming particles; and
as §1, §2

| Structure (SMILES) | change in a cell morphological metric (bullet metric) over treatment time (white blood cells) | cell morphological metric (e.g. bullet metric) (red blood cells) |
| --- | --- | --- |
| CCCCCCCCCCCCCC(=O)O[C@@H]1[C@@H](C)[C@@]2(O)[C@@H](C=C(CO)C[C@]3(O)C(=O)C(C)=C[C@@H]23)[C@@H]2C(C)(C)[C@]12OC(C)=O | increased change in a cell morphological metric | – |
| COc1cc(NC(C)CCCN)c2ncccc2c1 (centres unmarked) [primaquine] | – | decrease in a cell morphological metric |
